# Key:
# [1] = tested on: Collagen-Induced Arthritis, DBA1/J mice; assay: Collagen-Induced Arthritis (CIA) model; assay type: in vivo, mouse
# Method: In order to test the potential of C25-140 to ameliorate RA symptoms, a Collagen-Induced Arthritis (CIA) Model in DBA1/J mice was performed by Washington Biotechnology, Inc. (Baltimore, USA). Each group of ten mice was subjected to a single subcutaneous injection of collagen/complete Freund's Adjuvant emulsion (0.05 ml/mouse; 100 μg collagen/CFA). After 20 days (day 21), mice were booster injected with collagen (0.05 ml/mouse; 100 μg/mouse collagen in Incomplete Freund's Adjuvant). On day 28, mice were scored for their Arthritic Index (AI) and 14 days intraperitoneally dosed twice daily with 6 mg/kg, 10 mg/kg and 14 mg/kg C25-140, respectively. Mice were scored of macroscopic signs of arthritis daily. Thereby, the following scoring index was applied to each individual paw: 0=no visible effects of arthritis; 1=edema and/or erythema of 1 digit; 2=edema and/or erythema of 2 digits; 3=edema and/or erythema of more than 2 digits; 4=severe arthritis of entire paw and digits. Single paw scores were added and recorded. On day 42, animals were euthanized, limbs were collected and histopathology was performed using Toluidine blue staining with scoring of several parameters.
# plasma protein = assay: Plasma protein binding; assay type: in vitro ADME
# Method: All ADME (plasma stability, plasma protein binding, microsomal stability, Log D, Caco-2 assay, CYP450 inhibition and hERG predictor assay) as well as pharmacokinetic studies (Tmax, Cmax, AUC0-240 min, Mean Residence Time, Elimination half life, Elimination rate constant, Volume of Distribution and Clearance) of C25-140 (compound 3) were conducted by Bienta Enamine Biology Services of Bienta/Enamine Ltd.
# TRAF6 RZ1 protein = target: T1, TRAF6 RZ1 protein (Homo sapiens, UniProt Q9Y4K3); assay: 2D-NMR (SOFAST-HMQC) binding; details: protein:compound 1:5
# T1 construct: RING-Zincfinger1 (RZ1) domain (residues 50-159) of TRAF6 wildtype; GST (N, cleaved yes); made in house; host or cells: E. coli BL21 codon plus RIPL
# Method: To determine whether the inhibitory compounds directly bind to TRAF6 rather than to Ubc13, 2D-NMR experiments were conducted. Untagged ^15N-labeled TRAF6 RZ1 protein (c=120 μM) and compound (c=20 mM) were incubated at a ratio of 1:5 in a 3 mm NMR tube for 10 minutes before spectra acquisition. To observe chemical shift perturbations upon compound addition, two-dimensional SOFAST-HMQC spectra were acquired. All measurements were performed using the Bruker Avance 600 MHz spectrometer.
# ICAM-1 and A20 = assay: mRNA expression of NF-κB target genes in MEF cells; assay type: cell-based, mouse
# Method: (§1) For MEF cells, 1.2×10^5 cells per sample were seeded, treated with compound for 6 hours and stimulated with either IL-1β or TNFα for 60 minutes. Jurkat T-cells and primary mouse CD4^+ T-cells were seeded at 2×10^5 cells per sample, also treated with compound for 6 hours and stimulated with PMA/lonomycin for 3 hours. RNA was isolated according to the manufacturer's protocol of the Qiagen RNeasy Kit (MEF cells) or the STRATEC INVITRAP® SPIN UNIVERSAL RNA MINI KIT (Jurkat T-cells). The isolation of mRNA from […] white adipose tissue from DIO mice was performed using TRIzol® Reagent according to manufacturer's instruction. To clear the isolated RNA from genomic DNA, samples (up to 5 μg RNA) were treated with RQ1 RNase-Free DNaseI (Promega) as described in the technical manual. For the reverse transcription of RNA into cDNA, the DNaseI digested RNA samples were processed using the SuperScript III First Strand cDNA Synthesis System (Invitrogen/ThermoFisher Scientific) following the manufacturer's protocol. […] For quantification of cDNA in the samples, the LightCylcer480 (Roche) and the KAPA SYBR FAST qPCR Kit were used. For relative quantification, the ΔΔCp method first described by Pfaffl (Pfaffl, M. W., A new mathematical model for relative quantification in real-time RT-PCR. Nucleic Acids Res, 2001. 29(9): p. e45) was applied.
# IL-2 and TNFα = assay: mRNA expression of TCR target genes in Jurkat T-cells; assay type: cell-based, human; details: PMA/Ionomycin
# Method: as §1
# IKK kinase activity = assay: IKK kinase assay in Jurkat T-cells; assay type: cell-based, human; details: PMA/Ionomycin
# Method: For MEF cells, 5.5×10^5 cells were seeded, then treated with compound for 6 hours and eventually stimulated with IL-1β or TNFα for 8 minutes. 1×10^6 Jurkat T-cells were treated with compound for 6 hours and finally stimulated with PMA (400 ng/ml) and lonomycin (600 ng/ml) for 8 minutes. After cell lysis in Co-IP lysis buffer (150 mM NaCl; 25 mM Hepes (pH 7.5); 0.2% NP-40; 1 mM Glycerol; 10 mM NaF; 8 mM β-Glycerophosphat; 1 mM DTT; 300 μM Sodium-vanadate; complete protease inhibitor), input samples were taken and the supernatant was then incubated with 6 μL IKKγ antibody FL-419 (Santa Cruz Biotechnology). Upon incubation with Protein-G-Sepharose beads (GE Healthcare), beads were washed in Co-IP wash buffer (150 mM NaCl; 25 mM Hepes (pH 7.5); 0.2% NP-40; 1 mM Glycerol) and transferred into kinase reaction buffer ([…] HEPES pH7.9; 10 mM MgCl2; 20 μM ATP; 20 mM β-Glycerophosphat; 200 μM Sodium-Vanadate; 1 mM DTT) supplemented with […] GST-IκBα (1-53) and 0.5 μL ^32P-γ-ATP. After 30 minutes incubation at 37° C., reaction was stopped and analyzed by autoradiography as well as Western Blot after separation on SDS-PAGE.
# NF-κB = assay: EMSA NF-κB activation in Jurkat T-cells; assay type: cell-based, human; details: PMA/Ionomycin
# Method: For compound treatment, MEF cells were seeded in 6 well plates at 1.2×10^5 cells/well the day before treatment. Jurkat T-cells were seeded directly before treatment at 2×10^5 cells/sample. Six hours after compound or DMSO treatment cells were stimulated as indicated. Thereby, MEF cells were left untreated or stimulated with recombinant mouse IL-1β (1 ng/mL) or TNFα (10 ng/mL) for 20 minutes. Jurkat T-cells were stimulated with Phorbol-12-myristat-13-acetet (PMA) (400 ng/mL) and lonomycin (600 ng/mL) for 30 minutes. Eventually, cells were lysed in high-salt lysis buffer (20 mM HEPES pH 7.9; 350 mM NaCl; 1 mM MgCl2; 0.5 mM EDTA; 0.1 mM EGTA; 20% Glycerol; 1% NP-40; 10 mM NaF; 8 mM β-Glycerophosphate; 1 mM DTT; 300 μM Sodium-vanadate; complete protease inhibitor) and analyzed in EMSA assays using H2K (NF-κB) or Oct-1 (loading control) probes.
# T1 sequence (Q9Y4K3 50-159): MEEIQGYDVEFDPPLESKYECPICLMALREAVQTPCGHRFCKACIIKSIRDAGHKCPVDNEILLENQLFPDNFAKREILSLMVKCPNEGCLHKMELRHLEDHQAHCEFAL
compound,measurement,setting,value
"Cc1nn(-c2ccc3nnc(C)n3n2)c(C)c1CCC(=O)N1CCC(Cc2ccccc2)CC1 [Compound 3, 1-(4-benzylpiperidin-1-yl)-3-(3,5-dimethyl-1-(3-methyl-[1,2,4]triazolo[4,3-b]pyridazin-6-yl)-1H-pyrazol-4-yl)propan-1-one]",arthritic index (AI),"[1]; 10 mg/kg and 14 mg/kg IP twice daily, 14 days",almost completely ameliorated
same,"histology of limbs (summed scores, inflammation, pannus, cartilage damage, bone resorption)","[1]; 6, 10, 14 mg/kg IP twice daily",dose-dependently improves
same,body weight,[1]; throughout the study,did not show any signs of reduction
same,plasma protein binding,plasma protein,decent good plasma protein binding capacity
same,direct binding to TRAF6 (NMR peak shifts),TRAF6 RZ1 protein,directly binds
same,"IL-1β-induced target gene expression (ICAM-1, A20 mRNA)",ICAM-1 and A20,diminished
same,"TNFα induced NF-κB target gene expression (ICAM-1, A20 mRNA)",ICAM-1 and A20; TNFα,also affected
same,mRNA levels of IL-2 and TNFα,IL-2 and TNFα,dose-dependently decreased
same,IKK kinase activity,IKK kinase activity,diminished
same,NF-κB activation,NF-κB,attenuated

# Source: patent US11001591B2, “TRAF 6 inhibitors” (HELMHOLTZ ZENTRUM MUENCHEN—DEUTSCHES FORSCHUNGSZENTRUM FÜR …, priority 2016, dated 2021)
